Earlier results as cited in patent US5817883A, “Processes for producing hydroxyaldehydes” (Union Carbide Chemicals & Plastics Technology Corporation, priority 1997, dated 1998).
Where two headings read alike, the source gives them in different places.

[1] = Table I, organophosphorus ligand basicity

| Structure (SMILES) | pKb [1] | pKb (basicity of reference phosphine) |
| --- | --- | --- |
| COc1ccc(P(c2ccc(OC)cc2)c2ccc(OC)cc2)cc1 [Tri(p-methoxyphenyl)phosphine] | 4.6 | – |
| CCP(CC)C(C)(C)C [Diethyl-tert-butylphosphine] | 10.1 | – |
| CCCCP(CCCC)CCCC [Tri-n-butylphosphine] | 8.4 | – |
| CCP(CC)CC [Triethylphosphine] | 8.7 | – |
| CN(C)c1ccc(P(c2ccc(N(C)C)cc2)c2ccc(N(C)C)cc2)cc1 [Tri(p-N,N-dimethylaminophenyl)phosphine] | 8.65 | – |
| c1ccc(P(c2ccccc2)C2CCCCC2)cc1 [Diphenylcyclohexylphosphine] | 5 | – |
| C1CCC(P(C2CCCCC2)C2CCCCC2)CC1 [Tricyclohexylphosphine] | 10 | – |
| CP(C)C [Trimethylphosphine] | 8.7 | – |
| CCP(c1ccccc1)c1ccccc1 [Diphenylethylphosphine] | 4.9 | – |
| CCCP(CCC)CCC [Tri-n-propylphosphine] | 8.7 | – |
| CCCCCCCCP(CCCCCCCC)CCCCCCCC [Tri-n-octylphosphine] | 8.4 | – |
| CP(c1ccccc1)c1ccccc1 [Diphenylmethylphosphine] | 4.5 | – |
| c1ccc(P(c2ccccc2)c2ccccc2)cc1 [Triphenylphosphine, reference compound] | 2.74 | 2.74 |
| CCP(CC)c1ccccc1 [Diethylphenylphosphine] | 6.4 | – |
